Test results as given in ChEMBL document CHEMBL4311954, “Synthesis, biological evaluation, and docking studies of new raloxifene sulfonate or sulfamate derivatives as inhibitors of nucleotide pyrophosphatase/phosphodiesterase” (Eur J Med Chem, 2019).
Structures can show the parent of a compound that is named as a salt.

Assays:
A549 [1] = assay: Antiproliferative activity against human A549 cells assessed as cell viability at 10 uM after 72 hrs by MTT assay relative to control; type: functional; settings: A549, 72 h, read-out: Activity
MCF7 [2] = assay: Antiproliferative activity against human MCF7 cells assessed as cell viability at 10 uM after 72 hrs by MTT assay relative to control; type: functional; settings: MCF7, 72 h, read-out: Activity
HT-29 [3] = assay: Antiproliferative activity against human HT-29 cells assessed as cell viability at 10 uM after 72 hrs by MTT assay relative to control; type: functional; settings: HT-29, 72 h, read-out: Activity
A549 [4] = assay: Antiproliferative activity against human A549 cells assessed as reduction in cell viability after 48 hrs by MTT assay; type: functional, cell-based; settings: A549, 48 h
MCF7 [5] = assay: Antiproliferative activity against human MCF7 cells assessed as reduction in cell viability after 48 hrs by MTT assay; type: functional, cell-based; settings: MCF7, 48 h
HT-29 [6] = assay: Antiproliferative activity against human HT-29 cells assessed as reduction in cell viability after 48 hrs by MTT assay; type: functional, cell-based; settings: HT-29, 48 h
[7] = Cytotoxicity against human F180 cells assessed as reduction in cell viability after 48 hrs by MTT assay; type: cell-based; settings: F180, 48 h
[8] = target: T1, Ectonucleotide pyrophosphatase/phosphodiesterase family member 1 (Homo sapiens, UniProt P22413); assay: Inhibition of human NPP1 expressed in COS-7 cell membranes assessed as reduction in p-nitrophenol production using pNP-TMP as substrate preincubated with enzyme for 15 mins followed by substrate addition and measured after 35 mins
T1 sequence (P22413 whole entry): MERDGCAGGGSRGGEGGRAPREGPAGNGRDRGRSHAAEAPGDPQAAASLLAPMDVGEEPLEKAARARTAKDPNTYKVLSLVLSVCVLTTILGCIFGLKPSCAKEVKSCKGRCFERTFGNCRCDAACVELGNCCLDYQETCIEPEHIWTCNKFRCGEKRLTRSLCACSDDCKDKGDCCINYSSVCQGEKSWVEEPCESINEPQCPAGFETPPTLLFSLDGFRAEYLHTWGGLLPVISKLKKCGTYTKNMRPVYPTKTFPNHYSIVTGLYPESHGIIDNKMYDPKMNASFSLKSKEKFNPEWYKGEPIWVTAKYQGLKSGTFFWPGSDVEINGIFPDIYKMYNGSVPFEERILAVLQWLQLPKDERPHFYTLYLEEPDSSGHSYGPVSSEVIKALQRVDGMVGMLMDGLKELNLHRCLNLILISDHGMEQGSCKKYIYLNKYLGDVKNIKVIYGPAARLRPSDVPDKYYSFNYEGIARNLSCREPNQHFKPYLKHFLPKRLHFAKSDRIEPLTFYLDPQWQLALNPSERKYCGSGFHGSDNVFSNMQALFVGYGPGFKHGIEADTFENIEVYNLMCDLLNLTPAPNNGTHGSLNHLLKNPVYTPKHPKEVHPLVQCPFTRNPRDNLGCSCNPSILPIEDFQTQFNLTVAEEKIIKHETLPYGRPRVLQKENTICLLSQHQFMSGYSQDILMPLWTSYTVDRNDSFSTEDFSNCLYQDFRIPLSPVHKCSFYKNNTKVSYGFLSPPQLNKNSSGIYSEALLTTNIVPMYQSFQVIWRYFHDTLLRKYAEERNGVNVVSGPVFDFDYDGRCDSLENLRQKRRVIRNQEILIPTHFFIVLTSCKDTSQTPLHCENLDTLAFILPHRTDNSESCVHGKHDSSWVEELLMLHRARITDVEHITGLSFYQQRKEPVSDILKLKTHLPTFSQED

[9] = target: T2, Ectonucleotide pyrophosphatase/phosphodiesterase family member 3 (Homo sapiens, UniProt O14638); assay: Inhibition of human NPP3 expressed in COS-7 cell membranes assessed as reduction in p-nitrophenol production using pNP-TMP as substrate preincubated with enzyme for 15 mins followed by substrate addition and measured after 35 mins
T2 sequence (O14638 whole entry): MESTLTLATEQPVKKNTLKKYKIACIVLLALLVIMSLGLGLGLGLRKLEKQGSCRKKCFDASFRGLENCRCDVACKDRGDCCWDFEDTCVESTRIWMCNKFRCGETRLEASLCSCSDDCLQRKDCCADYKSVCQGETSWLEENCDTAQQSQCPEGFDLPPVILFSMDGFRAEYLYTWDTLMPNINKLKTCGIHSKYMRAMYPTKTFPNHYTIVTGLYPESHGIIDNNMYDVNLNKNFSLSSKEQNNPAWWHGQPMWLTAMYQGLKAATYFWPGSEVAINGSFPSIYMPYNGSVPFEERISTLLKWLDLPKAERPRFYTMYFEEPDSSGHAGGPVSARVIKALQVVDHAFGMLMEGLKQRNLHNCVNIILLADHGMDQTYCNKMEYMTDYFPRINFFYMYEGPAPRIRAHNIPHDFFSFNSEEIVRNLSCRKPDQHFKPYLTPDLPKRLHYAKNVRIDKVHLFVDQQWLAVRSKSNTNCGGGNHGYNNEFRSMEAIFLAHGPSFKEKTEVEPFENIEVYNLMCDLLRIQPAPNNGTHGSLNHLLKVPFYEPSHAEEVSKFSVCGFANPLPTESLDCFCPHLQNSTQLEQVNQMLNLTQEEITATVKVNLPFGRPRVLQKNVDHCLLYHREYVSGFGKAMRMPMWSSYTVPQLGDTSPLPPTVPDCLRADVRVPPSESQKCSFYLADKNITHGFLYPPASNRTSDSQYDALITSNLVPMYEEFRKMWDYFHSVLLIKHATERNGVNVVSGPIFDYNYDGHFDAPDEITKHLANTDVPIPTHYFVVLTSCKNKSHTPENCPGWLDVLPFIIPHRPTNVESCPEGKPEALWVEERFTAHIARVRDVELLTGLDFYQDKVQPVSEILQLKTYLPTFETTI

[10] = target: T3, Ectonucleotide pyrophosphatase/phosphodiesterase family member 1 (Homo sapiens) (UniProt P22413); assay: Inhibition of human NPP1 expressed in COS-7 cell membranes assessed as reduction in p-nitrophenol production at 100 uM using pNP-TMP as substrate preincubated with enzyme for 15 mins followed by substrate addition and measured after 35 mins relative to control
T3 sequence (whole entry): T1 sequence (P22413 whole entry)

[11] = target: T4, Ectonucleotide pyrophosphatase/phosphodiesterase family member 3 (Homo sapiens) (UniProt O14638); assay: Inhibition of human NPP3 expressed in COS-7 cell membranes assessed as reduction in p-nitrophenol production at 100 uM using pNP-TMP as substrate preincubated with enzyme for 15 mins followed by substrate addition and measured after 35 mins relative to control
T4 sequence (whole entry): T2 sequence (O14638 whole entry)

[12] = Selectivity index, ratio of IC50 for human F180 cells to IC50 for human HT-29 cells

| SMILES | viability at 10 µM (A549 [1]) [%] | viability at 10 µM (MCF7 [2]) [%] | viability at 10 µM (HT-29 [3]) [%] | IC50 (A549 [4]) [µM] | IC50 (MCF7 [5]) [µM] | IC50 (HT-29 [6]) [µM] | IC50 [7] [µM] | IC50 [8] [µM] | IC50 [9] [µM] | inhibition [10] [%] | inhibition [11] [%] | Ratio IC50 [12] |
| --- | --- | --- | --- | --- | --- | --- | --- | --- | --- | --- | --- | --- |
| O=C(c1ccc(OCCN2CCCCC2)cc1)c1c(-c2ccc(O)cc2)sc2cc(O)ccc12 [RALOXIFENE HYDROCHLORIDE] | 87 | 77.7 | 107 | > 15 | > 15 | > 15 | > 15 | – | – | – | – | – |
| O=C(c1ccc(OCCN2CCCCC2)cc1)c1c(-c2ccc(OS(=O)(=O)c3ccc(F)cc3)cc2)sc2cc(OS(=O)(=O)c3ccc(F)cc3)ccc12 | 105 | 115 | 108 | – | – | – | – | 8.88 | 1.81 | – | – | – |
| O=C(c1ccc(OCCN2CCCCC2)cc1)c1c(-c2ccc(OS(=O)(=O)c3cccc4cccnc34)cc2)sc2cc(OS(=O)(=O)c3cccc4cccnc34)ccc12 | 99.2 | 129 | 110 | – | – | – | – | – | – | 28.7 | 42.5 | – |
| O=C(c1ccc(OCCN2CCCCC2)cc1)c1c(-c2ccc(OS(=O)(=O)c3ccc(C(F)(F)F)cc3)cc2)sc2cc(OS(=O)(=O)c3ccc(C(F)(F)F)cc3)ccc12 | 67.7 | 41 | 17.4 | > 15 | > 15 | 4 | > 15 | 4.01 | 0.23 | – | – | – |
| O=C(c1ccc(OCCN2CCCCC2)cc1)c1c(-c2ccc(OS(=O)(=O)C3CCCCC3)cc2)sc2cc(OS(=O)(=O)C3CCCCC3)ccc12 | 104 | 136 | 109 | – | – | – | – | – | 0.49 | 30 | – | – |
| Cc1ccc(S(=O)(=O)Oc2ccc(-c3sc4cc(OS(=O)(=O)c5ccc(C)cc5)ccc4c3C(=O)c3ccc(OCCN4CCCCC4)cc3)cc2)cc1 | 95.2 | 116 | 72.4 | – | – | – | – | 0.45 | – | – | 38.5 | – |
| CC(C)(C)c1ccc(S(=O)(=O)Oc2ccc(-c3sc4cc(OS(=O)(=O)c5ccc(C(C)(C)C)cc5)ccc4c3C(=O)c3ccc(OCCN4CCCCC4)cc3)cc2)cc1 | 7.3 | 12.1 | 9.9 | 6.7 | 3.2 | 1.4 | 11.8 | 0.29 | 0.71 | – | – | 8.43 |
| COc1ccc(S(=O)(=O)Oc2ccc(-c3sc4cc(OS(=O)(=O)c5ccc(OC)cc5)ccc4c3C(=O)c3ccc(OCCN4CCCCC4)cc3)cc2)cc1 | 99.4 | 127 | 89.3 | – | – | – | – | 0.42 | 1.24 | – | – | – |
| CCS(=O)(=O)Oc1ccc(-c2sc3cc(OS(=O)(=O)CC)ccc3c2C(=O)c2ccc(OCCN3CCCCC3)cc2)cc1 | 90.2 | 118 | 62.2 | – | – | – | – | – | 1.51 | 35.1 | – | – |
| CNS(=O)(=O)Oc1ccc(-c2sc3cc(OS(=O)(=O)NC)ccc3c2C(=O)c2ccc(OCCN3CCCCC3)cc2)cc1 | 58.9 | 37.2 | 11.5 | 13 | 6 | 1.7 | > 15 | – | 1.55 | 36 | – | – |
| CN(C)S(=O)(=O)Oc1ccc(-c2sc3cc(OS(=O)(=O)N(C)C)ccc3c2C(=O)c2ccc(OCCN3CCCCC3)cc2)cc1 | 91.8 | 58 | 25 | > 15 | 3.4 | 1.5 | 14 | 4.24 | – | – | 43.7 | – |
